Reference: US12202942B2, “Functionalized silicone polymers and methods of making and using the same” (Wilmar Trading Pte. Ltd., priority 2018, dated 2025)

Assays:
Format in all cases: physicochemical
[1] = Brookfield viscosity of grafted siloxane derivatives
Experimental: (§1) The reactions were extremely exothermic and needed to be cooled by a dry ice bath once the temperature approached 30° C. For these reactions, an excess amount of terminal olefin substrate was used based on the equivalent weight (eqW) of hydrosiloxane. Reaction progress was monitored by FTIR as both the hydrosilane absorbance (2150 cm-1) and terminal olefin absorbance (1640 cm-1) disappeared while the carbonyl absorbance remained constant (1735 cm-1). Once the reaction was judged complete, the unreacted olefin starting material was removed by vacuum distillation. The resulting organofunctional siloxane oligomers were analyzed without further purification by 1H-NMR spectroscopy.
Into either a 50 or 100 ml three-necked, round-bottomed flask equipped with a magnetic stirrer, a thermocouple with a J-Kem controller, a heating mantle and a short path distillation apparatus with a nitrogen inlet was added the uC10 derivative and the hydrosilane oligomer. In most cases the reaction was run neat, however the uC10MEE-16-based reactions were two phase so that isopropanol (IPOH) was added to compatiblize the reactants. Once the catalyst was added (1 drop) at ambient temperatures, the temperature was carefully monitored. The reaction was gentle warmed by an air gun until about 30° C. when heating was discontinued and a dry ice bath was used to moderate the vigorous exotherm. Once the temperature had stabilized, then the heating mantle was used to hold the reaction temperature at 60° C. for the next few hours. The reaction's progress was easily monitored by FTIR as both the hydrosilane absorbance (2150 cm^−1) and the terminal olefin's absorbance (1640 cm^−1) disappeared while the carbonyl absorbance remained constant (1735 cm^−1). When the reactions were judged complete, they were typically subjected to reduced pressure to remove any excess reagents or solvents. The products were transferred into 2 oz glass bottles and remained liquids except for the uC16MEE-16-based materials that solidified. […]

[2] = Surface tension of grafted siloxane derivatives
Experimental: as §1

[3] = Solubility in organic solvents

SMILES | Viscosity (25° C.) [1] | Surface Tension (20° C.) [2] | Solubility in polar organic solvents (in words) ([3]; polar organic solvents) | Solubility (wt %) MEK ([3]; solvent MEK) | Solubility (wt %) Acetone ([3]; solvent acetone) | Solubility (wt %) Acetonitrile ([3]; solvent acetonitrile) | Solubility (wt %) Ethylene Glycol ([3]; solvent ethylene glycol) | Solubility (wt %) Heptanes ([3]; solvent heptanes) | Solubility (wt %) Methanol ([3]; solvent methanol)
COC(=O)CCCCCCCCC[Si](C)(O[Si](C)(C)C)O[Si](C)(C)C [Compound 6] | 7.1 | 22.6 mN/m | significantly more soluble | >50 wt % | >50 wt % | 13 wt % | 6 wt % | >50 wt % | 17 wt %
COCCOCCOCCOC(=O)CCCCCCCCC[Si](C)(O[Si](C)(C)C)O[Si](C)(C)C [Compound 7] | 17 | 21.4 mN/m |  |  |  |  |  |  | 
C[Si](C)(C)O[Si](C)(CCCCCCCCCC(=O)OCCC(F)(F)C(F)(F)C(F)(F)C(F)(F)F)O[Si](C)(C)C [Compound 9] | 16 | 20.8 mN/m |  |  |  |  |  |  | 
